Here are results for 2 compounds from ChEMBL document CHEMBL1201862, “PubChem BioAssay data set” (2004).

Holding throughout (test): growth of human tumour cells (NCI), 48 h
Assay [1] has as its system SK-MEL-2.
The test system of assay [2] is HL-60.
Assay [3] has as its system U-251.
Assay [4] deals with HCT-116.
Assay [5] has as its system MDA-N.
The test system of assay [6] is SW-620.
In assay [7] the test system is SK-OV-3.
For assay [8], the system named is NCI-H23.
The subject of assay [9] is SK-MEL-28.
The test system of assay [10] is OVCAR-8.
The test system of assay [11] is MDA-MB-435.
In assay [12] the test system is CCRF-CEM.
Assay [13] relates to BT-549.
Assay [14] deals with COLO 205.
Assay [15] relates to SNB-19.
Assay [16] deals with HOP-62.
The test system of assay [17] is A498.
The subject of assay [18] is NCI-H460.
Assay [19] concerns EKVX.
For assay [20], the system named is K562.

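Where inhibition never reached the appropriate level, the endpoint shown equals the highest concentration tested. Otherwise, values were interpolated linearly from a five-concentration, 48-hour dose response in 96-well plates. GI50 is the concentration that inhibits growth by half.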 Calls of active or inactive are those of the source. No stated cut-off is given here; in the data, active = GI50 up to about 1.1 µM and inactive = higher.

`COC(=O)C1(C#N)C(C)(C)N=C(c2ccccc2)C12CCCCC2` (stereo not given): the GI50 was > 100 µM (inactive) in [1]; 45.4 µM (inactive) in [2]; > 100 µM (inactive) in assay [3]; > 100 µM (inactive) in [4]; > 100 µM (inactive) in [5]; > 100 µM (inactive) in assay [6]. The GI50 in assay [7] was > 100 µM (inactive); in [8] it was > 100 µM (inactive); in assay [9], 82 µM (inactive); in assay [10], > 100 µM (inactive); in assay [11], > 100 µM (inactive); in assay [12] it was > 100 µM (inactive). Further, the GI50 in assay [13], in assay [14], in [15], in assay [16], in assay [17] and in assay [18] was > 100 µM (inactive) each time. Moreover, the GI50 is > 100 µM (inactive) in [19] and 59.7 µM (inactive) in assay [20].

In the case of `CC[C@@]1(O)C(=O)OCc2c1cc1n(c2=O)Cc2cc3ccccc3nc2-1` [CAMPTOTHECIN], the GI50 is 0.298 µM (active) in assay [1]; 0.015 µM (active) in assay [2]; 0.0111 µM (active) in assay [3]; 0.023 µM (active) in assay [4]; 0.145 µM (active) in assay [5]; 0.0366 µM (active) in [6]. In addition, the GI50 in assay [7] is 0.0202 µM (active); in [8] it was 0.0194 µM (active); in assay [9], 0.228 µM (active); in [10], 0.0388 µM (active); in [11], 0.0658 µM (active); in [12], < 0.01 µM (active). The GI50 in assay [13] was 0.115 µM (active); in assay [14], 0.286 µM (active); in [15], 0.0182 µM (active); in assay [16], 0.0116 µM (active); in assay [17], 0.0322 µM (active); in [18] it was 0.0158 µM (active). Moreover, the GI50 in assay [19] was 0.0951 µM (active); in assay [20], 0.0764 µM (active).
